Test results: the NIST ThermoML archive (doi:10.1021/je049910c)
Values joined by “and” are separate entries in the source; they are usually repeats but may differ in a detail not shown here. Equal values may be shown once.

How the values were obtained:
[1] = molar heat capacity at constant pressure; conditions: 101.33 kPa, Liquid
[2] = Crystal; DTA
[3] = Molar enthalpy of transition or fusion; conditions: Crystal; DSC

[Br-].[Br-].[Br-].[Tb+3] [terbium tribromide]
[1]
Conditions	molar heat capacity at constant pressure
305 K	95.25 J/K/mol
310 K	96.04 J/K/mol
315 K	96.89 J/K/mol
320 K	96.99 J/K/mol
325 K	97.03 J/K/mol
330 K	96.84 J/K/mol
335 K	97.05 J/K/mol
340 K	97.06 J/K/mol
345 K	98.47 J/K/mol
350 K	98.03 J/K/mol
354 K	96.27 J/K/mol
359 K	96.56 J/K/mol
364 K	95.16 J/K/mol
369 K	95.49 J/K/mol
374 K	95.66 J/K/mol
379 K	94.73 J/K/mol
384 K	96.58 J/K/mol
389 K	94.78 J/K/mol
394 K	96.69 J/K/mol
399 K	97.48 J/K/mol
404 K	97.16 J/K/mol
409 K	97.43 J/K/mol
414 K	96.37 J/K/mol
419 K	97.26 J/K/mol
424 K	96.24 J/K/mol
429 K	97.6 J/K/mol
434 K	98.83 J/K/mol
439 K	98.92 J/K/mol
444 K	98.73 J/K/mol
449 K	100.77 J/K/mol
454 K	101.24 J/K/mol
459 K	102.68 J/K/mol
464 K	101.53 J/K/mol
469 K	101.69 J/K/mol
474 K	101.67 J/K/mol
479 K	101.42 J/K/mol
484 K	102.61 J/K/mol
489 K	102.5 J/K/mol
494 K	101.69 J/K/mol
499 K	102.17 J/K/mol
504 K	102.99 J/K/mol
509 K	102.18 J/K/mol
514 K	100.27 J/K/mol
519 K	96.88 J/K/mol
524 K	98.84 J/K/mol
529 K	97.84 J/K/mol
534 K	99.15 J/K/mol
539 K	97.79 J/K/mol
543 K	97.7 J/K/mol
548 K	97.62 J/K/mol
553 K	98.93 J/K/mol
558 K	98.58 J/K/mol
568 K	98.34 J/K/mol
573 K	98.95 J/K/mol
578 K	98.65 J/K/mol
583 K	99.14 J/K/mol
588 K	98.88 J/K/mol
593 K	100.12 J/K/mol
598 K	98.39 J/K/mol
603 K	99.23 J/K/mol
608 K	100.21 J/K/mol
613 K	99.21 J/K/mol
618 K	100.47 J/K/mol
623 K	100.62 J/K/mol
628 K	99.41 J/K/mol
633 K	99.03 J/K/mol
638 K	100.94 J/K/mol
643 K	100.9 J/K/mol
648 K	106.81 J/K/mol
653 K	99.85 J/K/mol and 102.18 J/K/mol
658 K	101.21 J/K/mol
663 K	102.1 J/K/mol
668 K	99.19 J/K/mol
673 K	98.9 J/K/mol
678 K	101.61 J/K/mol
683 K	98.15 J/K/mol
688 K	99.94 J/K/mol
693 K	98.07 J/K/mol
698 K	97.98 J/K/mol
703 K	96.7 J/K/mol
708 K	97.79 J/K/mol
713 K	99.85 J/K/mol
717 K	99.17 J/K/mol
722 K	99.02 J/K/mol
727 K	99.08 J/K/mol
732 K	99.98 J/K/mol
737 K	99.41 J/K/mol
742 K	101.93 J/K/mol
747 K	100.1 J/K/mol
752 K	104.88 J/K/mol
757 K	100.82 J/K/mol
762 K	101 J/K/mol
767 K	101.85 J/K/mol
772 K	102.41 J/K/mol
777 K	103.2 J/K/mol
782 K	102.71 J/K/mol
787 K	101.9 J/K/mol
792 K	101.02 J/K/mol
797 K	101.52 J/K/mol
802 K	101.51 J/K/mol
807 K	99.68 J/K/mol
812 K	103.05 J/K/mol
817 K	103.73 J/K/mol
822 K	102.94 J/K/mol
827 K	103.83 J/K/mol
832 K	99.83 J/K/mol
837 K	98.83 J/K/mol
842 K	101.98 J/K/mol
847 K	103.78 J/K/mol
852 K	103.32 J/K/mol
857 K	99.15 J/K/mol
862 K	102.98 J/K/mol
867 K	101.94 J/K/mol
872 K	105.24 J/K/mol
877 K	101.33 J/K/mol
882 K	103.27 J/K/mol
887 K	97.19 J/K/mol
892 K	97.82 J/K/mol
897 K	98.26 J/K/mol
902 K	101.94 J/K/mol
907 K	97.88 J/K/mol
911 K	97.43 J/K/mol
916 K	100.85 J/K/mol
921 K	97.21 J/K/mol
926 K	100.73 J/K/mol
931 K	95.04 J/K/mol
936 K	99.59 J/K/mol
941 K	98.67 J/K/mol
946 K	99.44 J/K/mol
951 K	102.23 J/K/mol
956 K	103.73 J/K/mol
961 K	99.7 J/K/mol
966 K	98.27 J/K/mol
971 K	101.79 J/K/mol
976 K	102.55 J/K/mol
981 K	97.92 J/K/mol
986 K	104.37 J/K/mol
991 K	100.42 J/K/mol
996 K	107.17 J/K/mol
1001 K	105.67 J/K/mol
1006 K	110.34 J/K/mol
1011 K	102.11 J/K/mol
1016 K	100.99 J/K/mol
1021 K	106.91 J/K/mol
1026 K	105.87 J/K/mol
1031 K	112.44 J/K/mol
1036 K	99.98 J/K/mol
1041 K	101.71 J/K/mol
1046 K	101.91 J/K/mol
1051 K	106.32 J/K/mol
1056 K	110.86 J/K/mol
1061 K	111.7 J/K/mol

Conditions	Molar enthalpy of transition or fusion [kJ/mol]	Normal melting temperature [°C]
[2]	–	830
[3]	37.4	–
